Test results published in patent publication US6046190A, “Hydroxyethylamino sulphonamides useful as retroviral protease inhibitors” (G.D. Searle & Co., priority 1996, dated 2000).
Like-named read-outs stand apart in the source and are kept apart here.

What was measured:
[1] = Intrinsic toxicity of test compound in uninfected CEM cells (MTT); details: human
From the text: (§1) Methods, 20, 309-321 (1988).
(§2) [table 42: the next 8 blocks are its lines as printed, fixed-width]

HIV-1 in CEM cells = assay: HIV inhibition assay of acutely infected CEM cells (tetrazolium/MTT colorimetric), antiviral efficacy; assay type: cell-based; details: Human immunodeficiency virus 1, CCRF-CEM, 168 h
From the text: as §1, §2

HIV protease = biological target: T1, HIV protease (Human immunodeficiency virus type 1 group M subtype B, UniProt P04585); assay: biochemical; assay type: biochemical
T1 construct: HIV protease is diluted in the assay buffer to a final enzyme concentration of 12.3 nanomolar, based on a molecular weight of 10,780
Experimental: The enzyme method is described below. […] The positive control is MVT-101 (Miller, M. et al, Science, 246, 1149 (1989)]. The assay conditions are as follows:
20 mM sodium phosphate, pH 6.4
The above described substrate is dissolved in DMSO, then diluted 10 fold in assay buffer. Final substrate concentration in the assay is 80 μM.
The final concentration of DMSO is 14% and the final concentration of glycerol is 18%. The test compound is dissolved in DMSO and diluted in DMSO to 10× the test concentration; 10 μl of the enzyme preparation is added, the materials mixed and then the mixture is incubated at ambient temperature for 15 minutes. The enzyme reaction is initiated by the addition of 40μl of substrate. The increase in fluorescence is monitored at 4 time points (0, 8, 16 and 24 minutes) at ambient temperature. Each assay is carried out in duplicate wells.

[2] = Table 21, CEM cells, 1000 TCID50 HIV-1, 7 days, read-out: EC50
[3] = Table 21, above-described enzyme assay
[4] = Table 19B, calculated IC50, enzyme 12.3 nanomolar, substrate 80 μM, pH 6.4
[5] = Table 20, calculated IC50, enzyme 12.3 nanomolar, substrate 80 μM, pH 6.4

Compound	EC50 (HIV-1 in CEM cells)	EC50 (HIV-1 in CEM cells; [2])	other results
CC(C)CCN(C[C@@H](O)[C@H](Cc1ccccc1)NC(=O)OCc1ccccc1)S(=O)(=O)c1ccccc1 [Example 1]	55 nM		CC50 at 168 h [1]: 27 nM
CC(C)CCN(C[C@@H](O)[C@H](Cc1ccccc1)NC(=O)[C@H](CC(N)=O)NC(=O)c1ccc2ccccc2n1)S(=O)(=O)c1ccccc1 [Example 2]		5 nM	CC50 at 168 h [1]: 203 nM
COc1ccc(COC(=O)NC[C@@H](C)C(=O)N[C@@H](Cc2ccccc2)[C@H](O)CN(CCC(C)C)S(=O)(=O)c2ccccc2)cc1 [Example 3]	11 nM		CC50 at 168 h [1]: 780 nM
CC(C)CCN(C[C@@H](O)[C@H](Cc1ccccc1)NC(=O)[C@H](CC(N)=O)NC(=O)c1ccc2ccccc2n1)S(C)(=O)=O [Example 4]	64 nM		CC50 at 168 h [1]: 28 nM
O=C(N[C@@H](Cc1ccccc1)[C@H](O)CN(C1CCCCC1)S(=O)(=O)c1ccccc1)OCc1ccccc1 [Example 5]	88 nM		CC50 at 168 h [1]: 11 nM
COCCCN(C[C@@H](O)[C@H](Cc1ccccc1)NC(=O)OCc1ccccc1)S(=O)(=O)c1ccccc1 [Example 9]	398 nM		CC50 at 168 h [1]: 15 nM
CSCCCN(C[C@@H](O)[C@H](Cc1ccccc1)NC(=O)OCc1ccccc1)S(=O)(=O)c1ccccc1 [Example 10]	700 nM		CC50 at 168 h [1]: 12 nM
CC(C)CCN(C[C@@H](O)[C@H](Cc1ccccc1)NC(=O)[C@@H](NC(=O)CN(C)C)C(C)(C)C)S(=O)(=O)c1ccccc1 [Example 11]	11 nM		CC50 at 168 h [1]: 54 nM
CC(C)CCN(C[C@@H](O)[C@H](Cc1ccccc1)NC(=O)[C@H](Cc1cnc[nH]1)NC(=O)c1ccc2ccccc2n1)S(=O)(=O)c1ccccc1 [Example 12]	12 nM		CC50 at 168 h [1]: 7.5 nM
CCC(C)[C@H](NC(=O)CN(C)C)C(=O)N[C@@H](Cc1ccccc1)[C@H](O)CN(CC(C)C)S(=O)(=O)c1ccc(OC)cc1 (some centres unmarked) [Example 13]	< 16 nM		
CCC(C)[C@H](NC(=O)CNC)C(=O)N[C@@H](Cc1ccccc1)[C@H](O)CN(CCC(C)C)S(=O)(=O)c1ccccc1 (some centres unmarked) [Example 15]	38 nM		
CC(C)CN(C[C@@H](O)[C@H](Cc1ccccc1)NC(=O)OCc1cccnc1)S(=O)(=O)c1ccccc1 [Example 16]	80 nM		CC50 at 168 h [1]: 62000 nM
CC(C)CN(C[C@@H](O)[C@H](Cc1ccccc1)NC(=O)OCc1cccnc1)S(=O)(=O)c1ccc(Cl)cc1 [Example 18]	154 nM		
CC(C)CN(C[C@@H](O)[C@H](Cc1ccccc1)NC(=O)OCc1cccnc1)S(=O)(=O)c1ccc([N+](=O)[O-])cc1 [Example 19]		377 nM	
CC(C)CN(C[C@@H](O)[C@H](Cc1ccccc1)NC(=O)OCc1cccnc1)S(=O)(=O)c1ccc(O)cc1 [Example 20]		13 nM	
COc1ccc(S(=O)(=O)N(CC(C)C)C[C@@H](O)[C@H](Cc2ccccc2)NC(=O)OCc2cncnc2)cc1 [Example 23]		8 nM	
COc1ccc(S(=O)(=O)N(CC(C)C)C[C@@H](O)[C@H](Cc2ccccc2)NC(=O)c2ccncc2)cc1 [Example 33]	68 nM		
COc1ccc(S(=O)(=O)N(CC(C)C)C[C@@H](O)[C@H](Cc2ccccc2)NC(=O)c2cccnc2)cc1 [Example 34]	188 nM		
COc1ccc(S(=O)(=O)N(CC(C)C)C[C@@H](O)[C@H](Cc2ccccc2)NC(=O)c2cccc(N(C)C)c2C)cc1 [Example 36]		898 nM	
Cc1ccccc1C(=O)N[C@@H](Cc1ccccc1)[C@H](O)CN(CC(C)C)S(=O)(=O)c1ccc(O)cc1 [Example 37]		< 20 nM	
COc1ccc(S(=O)(=O)N(CC(C)C)C[C@@H](O)[C@H](Cc2ccccc2)NC(=O)OCc2ccc(N)nc2)cc1 [Example 38]		1100 nM	
COc1ccc(S(=O)(=O)N(CC(C)C)C[C@@H](O)[C@H](Cc2ccccc2)NC(=O)OCc2ccc(O)nc2)cc1 [Example 39]		269 nM	
CC(C)CN(C[C@@H](O)[C@H](Cc1ccccc1)NC(=O)OCc1cncnc1)S(=O)(=O)c1ccc(O)cc1 [Example 41]	11 nM		
CC(C)CN(C[C@@H](O)[C@H](Cc1ccccc1)NC(=O)O[C@H]1CCSC1)S(=O)(=O)c1ccc(O)cc1 [Example 42]		< 20 nM	
CC(C)CN(C[C@@H](O)[C@H](Cc1ccccc1)NC(=O)O[C@H]1CCS(=O)(=O)C1)S(=O)(=O)c1ccc(O)cc1 [Example 43]		63 nM	
COc1ccc(S(=O)(=O)N(CC(C)C)C[C@@H](O)[C@H](Cc2ccccc2)NC(=O)O[C@H]2CCOC2)cc1 [Example 44]		8 nM	
CC(C)CN(C[C@@H](O)[C@H](Cc1ccccc1)NC(=O)O[C@H]1CCOC1)S(=O)(=O)c1ccc(O)cc1 [Example 45]	5 nM		
COc1ccc(S(=O)(=O)N(CC(C)C)C[C@@H](O)[C@H](Cc2ccccc2)NC(=O)O[C@H]2CCSC2)cc1 [Example 46]		< 20 nM	

Compound	EC50 (HIV-1 in CEM cells)	EC50 (HIV-1 in CEM cells; [2])	other results
COc1ccc(S(=O)(=O)N(CC(C)C)C[C@@H](O)[C@H](Cc2ccccc2)NC(=O)c2cccc([N+](=O)[O-])c2C)cc1 [Example 48]		210 nM	
COc1ccc(S(=O)(=O)N(CC(C)C)C[C@@H](O)[C@H](Cc2ccccc2)NC(=O)c2cccc(N)c2C)cc1 [Example 49]		< 20 nM	IC50 (HIV protease; [3]): 6 nM
COc1ccc(S(=O)(=O)N(CC(C)C)C[C@@H](O)[C@H](Cc2ccccc2)NC(=O)c2ccc(N)cc2C)cc1 [Example 51]		< 20 nM	IC50 (HIV protease; [3]): 9 nM
COc1ccc(S(=O)(=O)N(CC(C)C)C[C@@H](O)[C@H](Cc2ccccc2)NC(=O)c2ccc(N(C)C)cc2C)cc1 [Example 52]			IC50 (HIV protease; [3]): > 100 nM
COc1ccc(S(=O)(=O)N(CC(C)C)C[C@@H](O)[C@H](Cc2ccccc2)NC(=O)c2cc(N)ccc2C)cc1 [Example 54]			IC50 (HIV protease; [3]): 10 nM
COc1ccc(S(=O)(=O)N(CC(C)C)C[C@@H](O)[C@H](Cc2ccccc2)NC(=O)OCc2cncs2)cc1 [Example 56]		40 nM	
CC(C)CN(C[C@@H](O)[C@H](Cc1ccccc1)NC(=O)OCc1cncs1)S(=O)(=O)c1ccc(O)cc1 [Example 57]		< 20 nM	
COc1ccc(S(=O)(=O)N(CC(C)C)C[C@@H](O)[C@H](Cc2ccccc2)NC(=O)OCc2ccoc2)cc1 [Example 58]		70 nM	
COc1ccc(S(=O)(=O)N(CC(C)C)C[C@@H](O)[C@H](Cc2ccccc2)NC(=O)c2cccc(O)c2C)cc1 [Example 59]		22 nM	IC50 (HIV protease; [3]): 3 nM
CC(C)CN(C[C@@H](O)[C@H](Cc1ccccc1)NC(=O)OCc1ccoc1)S(=O)(=O)c1ccc(N)cc1 [Example 60]		60 nM	
CC(C)CN(C[C@@H](O)[C@H](Cc1ccccc1)NC(=O)OCc1cccnc1)S(=O)(=O)c1ccc2c(c1)OCO2 [Example 69]	68 nM		
CC(C)CN(C[C@@H](O)[C@H](Cc1ccccc1)NC(=O)OCc1cncs1)S(=O)(=O)c1ccc2c(c1)OCO2 [Example 70]		30 nM	
Cc1c(O)cccc1C(=O)N[C@@H](Cc1ccccc1)[C@H](O)CN(CC(C)C)S(=O)(=O)c1ccc2c(c1)OCO2 [Example 73]		22 nM	
CC(C)CCN(C[C@@H](O)[C@H](Cc1ccccc1)NC(=O)C(NC(=O)OCc1ccccc1)C(C)(C)C)S(C)(=O)=O (some centres unmarked) [Table 3 Entry 1]			IC50 (HIV protease; [4]): 81 nM
CNCC(=O)NC(C(=O)N[C@@H](Cc1ccccc1)[C@H](O)CN(CCC(C)C)S(=O)(=O)c1ccccc1)C(C)(C)C (some centres unmarked) [Table 3 Entry 6]			IC50 (HIV protease; [4]): 1.8 nM
CC(C)CCN(C[C@@H](O)[C@H](Cc1ccccc1)NC(=O)C(NC(=O)CN(C)C)C(C)(C)C)S(=O)(=O)c1ccccc1 (some centres unmarked) [Table 3 Entry 8]			IC50 (HIV protease; [4]): 3 nM
COc1ccc(S(=O)(=O)N(CC(C)C)C[C@@H](O)[C@H](Cc2ccccc2)NC(=O)C(NC(=O)CN(C)C)C(C)(C)C)cc1 (some centres unmarked) [Table 3 Entry 10]			IC50 (HIV protease; [4]): 2.5 nM
COc1ccc(S(=O)(=O)N(CC(C)C)C[C@@H](O)[C@H](Cc2ccccc2)NC(=O)C2CCc3ccccc3C2)cc1 (some centres unmarked) [Table 5A Entry 4]			IC50 (HIV protease): 10 nM
COc1ccc(S(=O)(=O)N(CC(C)C)C[C@@H](O)[C@H](Cc2ccccc2)NC(=O)c2ccc(C)cc2C)cc1 [Table 5A Entry 6]			IC50 (HIV protease): 23 nM
COc1ccc(S(=O)(=O)N(CC(C)C)CC(O)C(Cc2ccccc2)NC(=O)c2cccnc2)cc1 (centres unmarked) [Table 5A Entry 9]			IC50 (HIV protease; [5]): 67 nM
COc1ccc(S(=O)(=O)N(CC(C)C)CC(O)C(Cc2ccccc2)NC(=O)c2ccncc2)cc1 (centres unmarked) [Table 5A Entry 11]			IC50 (HIV protease; [5]): 18 nM
COc1ccc(S(=O)(=O)N(CC(C)C)CC(O)C(Cc2ccccc2)NC(=O)c2ccccc2Cl)cc1 (centres unmarked) [Table 5A Entry 12]			IC50 (HIV protease; [5]): 6 nM
COc1ccc(S(=O)(=O)N(CC(C)C)CC(O)C(Cc2ccccc2)NC(=O)c2ccccc2C(C)C)cc1 (centres unmarked) [Table 5A Entry 14]			IC50 (HIV protease; [5]): 49 nM
COc1ccc(S(=O)(=O)N(CC(C)C)CC(O)C(Cc2ccccc2)NC(=O)c2ccccc2)cc1 (centres unmarked) [Table 5A Entry 25]			IC50 (HIV protease; [5]): 14 nM
COc1ccc(S(=O)(=O)N(CC(C)C)CC(O)C(Cc2ccccc2)NC(=O)c2ccc(C)cc2)cc1 (centres unmarked) [Table 5A Entry 28]			IC50 (HIV protease; [5]): 15 nM
COc1ccc(S(=O)(=O)N(CC(C)C)C[C@@H](O)[C@H](Cc2ccccc2)NC(=O)c2ccccc2OC)cc1 [Table 5A Entry 29]			IC50 (HIV protease; [5]): 190 nM
COc1ccc(S(=O)(=O)N(CC(C)C)C[C@@H](O)[C@H](Cc2ccccc2)NC(=O)c2cccc(OC)c2)cc1 [Table 5A Entry 30]			IC50 (HIV protease): 30 nM
